From US20020111532A1, “Tris(hydroxymethyl)phosphino compounds as tissue crosslinking agents” (priority 2000, published 2002)

Test: Shrinkage Temperature Assay (differential scanning calorimetric analysis)
Type: physicochemical
Details: bovine pericardium crosslinked overnight at room temperature; THPP 10 mg/mL in PBS or 0.25% glutaraldehyde
Description: Tissue Crosslinking: Bovine pericardium tissue was cut into ˜1 cm^2 samples and rinsed in ˜1 L ultrafiltered H2O for about 30 min with stirring. The samples were then rinsed in PBS for an additional 30 min at room temperature with shaking.
Samples were left in solution overnight at room temperature. Samples were then rinsed 5×30 min in ˜200 mL PBS each rinse, and then either tested immediately or stored in 0.01 M HEPES with 40% isopropyl alcohol until testing.
Shrinkage Temperature Assay: The shrinkage temperature of some crosslinked samples was determined using standard differential scanning calorimetric analysis. Briefly, 2-10 mg of tissue was heated at 10° C. increments under nitrogen. Typically, an endotherm is seen in the range of 60° C.-90° C., and this endotherm is attributed to a shrinkage transition.

SMILES: O=CCCCC=O [Glutaraldehyde, glutaraldehyde]
- Shrink Onset Temperature: 86.04 °C
